Results as given in patent US20100179172A1, “N-PHENYL-METHANAMINE DERIVATIVE AND PESTICIDE CONTAINING IT” (priority 2007, published 2010).

Tested on: Larval ticks (Haemaphysalis longicornis)
Assay: Test on controlling effects against Haemaphysalis longicornis (Petri dish contact, knock down time, Test Example 7)
Assay type: in vivo
Details: 1 ml in Petri dish, 25° C.
Method: On an inner surface of a Petri dish having a diameter of 9 cm, 1 ml of a solution of the compound No. 40 in acetone (concentration: 10 μg/ml, 1 μg/ml or 0.1 μg/ml) was dropped by a micro pipette. After the inner surface of the Petri dish was dried, 100 Larval ticks (Haemaphysalis longicornis) were put, and the Petri dish was covered with a polyethylene sheet and sealed by a rubber band. Thereafter, the Petri dish was left to stand still at a constant temperature of 25° C. under a relative humidity of 100% under a constant dark condition except for the time of observation. Observation was carried out every time upon expiration of a certain time (i.e. after 5, 10, 20, 30, 60, 120, 180 and 240 minutes), and the number of ticks knocked down after contact with the compound was counted. As a control group, Larval ticks were put in a Petri dish having 1 ml of acetone dropwise added and observed in the same manner. The above operation was repeated twice.
From the number of knocked down ticks in each observation, the survival rate was obtained, and a corrected mortality was calculated by the following Abbott correction formula. Then, probit-time linear line was drawn, and the median knock down time (KT50 value) was obtained.
Corrected mortality (%)=[(Survival rate in control group−Survival rate in treated group)/Survival rate in control group]×100

## Cc1ncccc1CN(Cc1ccccn1)c1cc(C(F)(F)F)c(Br)c(C(F)(F)F)c1 [compound 40]
0.1 μg/ml
  KT50 value, Average: 38 min
  KT50 value, First time: 40 min
  KT50 value, Second time: 35 min
1 μg/ml
  KT50 value, Average: 50 min
  KT50 value, First time: 50 min
  KT50 value, Second time: 50 min
10 μg/ml
  KT50 value, Average: 40 min
  KT50 value, First time: 40 min
  KT50 value, Second time: 40 min
